Converted amounts (≈) assume the structure as drawn.
Experiments:
[1] = test system: Bacillus subtilis ATCC 9372; test: Determination of MIC and MBC by microdilution method, Bacillus subtilis ATCC 9372; assay type: cell-based
Procedure: (§1) The compound have been tested towards 7 reference strains:
Bacillus subtilis ATCC 9372
(§2) The determination of minimal inhibitory concentrations (MIC) has been performed using a microdution method (microplates and inoculator Dynatech) in liquid medium (MUELLER-HINTON broth) under a volume of 100 μl and for a range of concentrations from 128 to 0.06 mg/l, prepared from a mother liquor of antibiotics titrating 512 mg/l. The preparation of these mother liquors has been performed and vary depending on the molecules as a function of the solubility criterions. Inoculation has been done by adding in each will, 10 μl of a dilution in saline of 18 hours old broth in a brain-heart broth, such as each well contains about 10^6 bacterias/ml.
(§3) The Minimal Inhibitory Concentrations are read as the first concentration of antibiotic which will not give a growth macroscopically detectable after 18 hours incubating at 37°.

S. aureus CB-951 = test: Determination of MIC and MBC by microdilution method, S. aureus CB-951; assay type: cell-based, Staphylococcus aureus; settings: erythromycinolincomycino, pefloxacino resistant; for MIC / MBC: Staphylococcus aureus; for MIC: CB951, 18 h, read-out: Minimal inhibitory concentration (MIC); for MBC: CB951, S. aureus CB-951, methicillino, read-out: Minimal bactericidal concentration (MBC)
Procedure: as §1
Staphylococcus aureus CB 951
as §2, §3

[2] = test system: Streptococcus faecalis ATCC 8043; test: Determination of MIC and MBC by microdilution method, Streptococcus faecalis ATCC 8043; assay type: cell-based; settings: for MBC / MIC: Enterococcus faecalis; for MBC: ATCC8043, S. faecalis ATCC 8043, read-out: Minimal bactericidal concentration (MBC); for MIC: ATCC8043, read-out: Minimal inhibitory concentration (MIC)
Procedure: as §1
Streptococcus faecalis ATCC 8043
(§4) The preparation of these mother liquors has been performed and vary depending on the molecules as a function of the solubility criterions. Inoculation has been done by adding in each will, 10 μl of a dilution in saline of 18 hours old broth in a brain-heart broth, such as each well contains about 10^6 bacterias/ml. […]

[3] = test system: Escherichia coli ATCC 25922; test: Determination of MIC and MBC by microdilution method, Escherichia coli ATCC 25922; assay type: cell-based; settings: E. coli ATCC 25922; for MIC / MBC: Escherichia coli, ATCC25922; for MIC: read-out: Minimal inhibitory concentration (MIC); for MBC: read-out: Minimal bactericidal concentration (MBC)
Procedure: as §1
Escherichia coli ATCC 25922
as §2, §3

[4] = test system: Acinetobacter Baumanii ATCC 17904; test: Determination of MIC and MBC by microdilution method, Acinetobacter; assay type: cell-based; settings: for MIC / MBC: Acinetobacter baumannii; for MIC: ATCC17904, 18 h, read-out: Minimal inhibitory concentration (MIC); for MBC: ATCC17904, Acinetobacter Baumanii ATCC 17904, read-out: Minimal bactericidal concentration (MBC)
Procedure: The compound have been tested towards 7 reference strains: […]
as §2, §3

[5] = test system: Staphylococcus aureus ATCC 25923; test: Determination of MIC and MBC by microdilution method, Staphylococcus aureus ATCC 25923; assay type: cell-based; settings: for MIC / MBC: Staphylococcus aureus; for MIC: ATCC25923, 18 h, read-out: Minimal inhibitory concentration (MIC); for MBC: ATCC25923, S. aureus ATCC 25923, read-out: Minimal bactericidal concentration (MBC)
Procedure: as §1
Staphylococcus aureus ATCC 25923
as §2, §3

[6] = test system: Pseudomonas aeruginosa ATCC 22853; test: Determination of MIC and MBC by microdilution method, Pseudomonas aeruginosa ATCC 22853; assay type: cell-based; settings: for MIC / MBC: Pseudomonas aeruginosa; for MIC: ATCC22853, 18 h, read-out: Minimal inhibitory concentration (MIC); for MBC: ATCC22853, P. aeruginosa ATCC 22853, read-out: Minimal bactericidal concentration (MBC)
Procedure: as §1
Pseudomonas aeruginosa ATCC 22853
as §4

[7] = S. aureus CB-951, methicillino, Mueller-Hinton broth, 18 hours at 37°
[8] = S. faecalis ATCC 8043, Mueller-Hinton broth, 18 hours at 37°
[9] = Mueller-Hinton broth, 18 hours at 37°
[10] = Acinetobacter Baumanii ATCC 17904, Mueller-Hinton broth, 18 hours at 37°
[11] = S. aureus ATCC 25923, Mueller-Hinton broth, 18 hours at 37°
[12] = P. aeruginosa ATCC 22853, Mueller-Hinton broth, 18 hours at 37°

Structure (SMILES) | MIC (S. aureus CB-951; [7]) [µg/mL] | MIC [2, 8] [µg/mL] | MIC [3, 9] [µg/mL] | MIC [4, 10] [µg/mL] | MIC [5, 11] [µg/mL] | MIC [6, 12] [µg/mL] | MBC (S. aureus CB-951) [µg/mL] | MBC [2] [µg/mL] | MBC [3] [µg/mL] | MBC [4] [µg/mL] | MBC [5] [µg/mL] | MBC [6] [µg/mL] | also measured
C=CCn1cc(C(=O)O)c(=O)c2cc(F)c(N3CCC(CN)CC3)c(F)c21 [Compound 6, 7-(4-aminomethylpiperidinyl-1) 6,8-difluoro 1-allyl 4-oxo 1,4-dihydroquinoleinyl-3 carboxylic acid] | 32 (≈ 84.8 µM) | 1 (≈ 2.65 µM) | 1 (≈ 2.65 µM) | 1 (≈ 2.65 µM) | 1 (≈ 2.65 µM) | 8 (≈ 21.2 µM) | 64 (≈ 170 µM) | 4 (≈ 10.6 µM) | 2 (≈ 5.3 µM) | 2 (≈ 5.3 µM) | 2 (≈ 5.3 µM) | 16 (≈ 42.4 µM) | MIC ([1]; ATCC9372, Mueller-Hinton broth, 18 hours at 37°, read-out: Minimal inhibitory concentration (MIC)): 1 µg/mL (≈ 2.65 µM); MBC ([1]; ATCC9372, read-out: Minimal bactericidal concentration (MBC)): 2 µg/mL (≈ 5.3 µM)
CCn1cc(C(=O)O)c(=O)c2cc(F)c(N3CCC(CN)CC3)c(F)c21 [Compound a, 7-(4-aminomethylpiperidinyl-1) 6,8-difluoro 1-ethyl 4-oxo 1,4-dihydroquinoleinyl-3 carboxylic acid] |  |  |  |  |  |  |  |  |  |  |  |  | Minimal bactericidal concentration (MBC) (S. aureus CB-951; S. aureus CB-951, methicillino): 2 µg/mL (≈ 5.47 µM); Minimal inhibitory concentration (MIC) (S. aureus CB-951; [7]): 2 µg/mL (≈ 5.47 µM); Minimal bactericidal concentration (MBC) ([2]; S. faecalis ATCC 8043): 0,5 μg/ml; Minimal inhibitory concentration (MIC) [2, 8]: 0,5 μg/ml; Minimal bactericidal concentration (MBC) [3]: 0,5 μg/ml; Minimal inhibitory concentration (MIC) [3, 9]: 0,5 μg/ml; Minimal bactericidal concentration (MBC) ([4]; Acinetobacter Baumanii ATCC 17904): 0,25 μg/ml; Minimal inhibitory concentration (MIC) [4, 10]: 0,25 μg/ml; Minimal bactericidal concentration (MBC) ([5]; S. aureus ATCC 25923): 0,25 μg/ml; Minimal inhibitory concentration (MIC) [5, 11]: 0,25 μg/ml; Minimal bactericidal concentration (MBC) ([6]; P. aeruginosa ATCC 22853): 4 µg/mL (≈ 10.9 µM); Minimal inhibitory concentration (MIC) [6, 12]: 2 µg/mL (≈ 5.47 µM)
CCC(=O)NCC1CCN(c2c(F)cc3c(=O)c(C(=O)O)cn(CCF)c3c2F)CC1 [Compound 8, 7-[(4-propionylaminomethyl)piperidinyl-1] 6,8-difluoro1-fluoroethyl 4-oxo 1,4-dihydroquinoleinyl-3 carboxylic acid] | 0.3 (≈ 0.683 µM) | 6 (≈ 13.7 µM) | 6 (≈ 13.7 µM) | 0.3 (≈ 0.683 µM) | 0.15 (≈ 0.341 µM) | > 12 | 0.7 (≈ 1.59 µM) | > 12 | > 12 | 0.7 (≈ 1.59 µM) | 0.3 (≈ 0.683 µM) | > 12 | 
NCC1CCN(c2c(F)cc3c(=O)c(C(=O)O)cn(Cc4ccc(F)cc4)c3c2F)CC1 [Compound 4, 7-(4-aminomethylpiperidinyl-1) 6,8-difluoro 1-(4-fluorobenzyl) 4-oxo 1,4-dihydroquinoleinyl-3 carboxylic acid] | > 12 | > 12 | > 12 | 12 (≈ 26.9 µM) | 12 (≈ 26.9 µM) | > 12 | 12 (≈ 26.9 µM) | 12 (≈ 26.9 µM) | > 12 | > 12 | 12 (≈ 26.9 µM) | > 12 | 

Further lines, with some results ahead:

MIC (S. aureus CB-951; [7]) [µg/mL] | MIC [2, 8] [µg/mL] | MIC [3, 9] [µg/mL] | MIC [4, 10] [µg/mL] | MIC [5, 11] [µg/mL] | MIC [6, 12] [µg/mL] | Structure (SMILES) | MBC (S. aureus CB-951) [µg/mL] | MBC [2] [µg/mL] | MBC [3] [µg/mL] | MBC [4] [µg/mL] | MBC [5] [µg/mL] | MBC [6] [µg/mL] | also measured
16 (≈ 28.9 µM) | > 16 | > 16 | 4 (≈ 7.23 µM) | 2 (≈ 3.61 µM) | > 16 | CCn1cc(C(=O)O)c(=O)c2cc(F)c(N3CCC(CNC(=O)Nc4ccc(Cl)c(Cl)c4)CC3)c(F)c21 [Compound 14, 7-[4-(3,4-dichlorophenyl)aminocarbonylaminomethylpiperidinyl-1] 6,8-difluoro 1-ethyl] | > 16 | > 16 | > 16 | 8 (≈ 14.5 µM) | 8 (≈ 14.5 µM) | > 16 | 
4 (≈ 12 µM) | 1 (≈ 3 µM) | 0.06 (≈ 0.18 µM) | 0.06 (≈ 0.18 µM) | 0.12 (≈ 0.36 µM) | 2 (≈ 6 µM) | CCn1cc(C(=O)O)c(=O)c2cc(F)c(N3CCN(C)CC3)cc21 [Pefloxacine, reference compound] | 4 (≈ 12 µM) | 1 (≈ 3 µM) | 0.06 (≈ 0.18 µM) | 0.06 (≈ 0.18 µM) | 0.25 (≈ 0.75 µM) | 2 (≈ 6 µM) | 
